Reference: US11667602B2, “Compounds and their use” (AstraZeneca AB, priority 2020, dated 2023)
Converted amounts (≈) assume the structure as drawn.

Columns and labels:
[1] = Human Plasma Protein Binding (Test B); format: in vitro ADME; details: fraction unbound (fu)
Outline: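 Values given as % free (fu) in human plasma, using the method of Wernevik et al. (2020). For compounds tested more than once, the arithmetic mean is given.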

[2] = Human Liver Microsomal Stability (Test C); format: in vitro ADME; details: human, liver microsomes
Outline: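 CLint (μl/min/mg protein) derived from compound depletion in human liver microsomes following a published standardized early-DMPK protocol; replicate determinations given as arithmetic mean.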

[3] = Human Hepatocyte Stability (Test D); format: in vitro ADME; details: human, cryopreserved pooled human hepatocytes (LiverPool 10-Donor), geometric mean if run multiple times
Outline: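 Intrinsic clearance (μL/min/10^6 cells), derived as kV/N from the log-linear loss of parent compound. Compound incubated at 37 °C with cryopreserved pooled human hepatocytes, 0.25×10^6 cells in 0.25 mL L-15; dosing solution 100 μM in acetonitrile. Singlicate incubations, cassette LC-MS; repeats reported as geometric mean.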

[4] = Rat Hepatocyte Stability (Test E); format: in vitro ADME; details: rat, hepatocytes, geometric mean if run multiple times
Outline: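 Intrinsic clearance in rat hepatocytes, expressed as μl/min/10^6 cells, following the literature integrated DMPK panel method. Repeat determinations combined as geometric mean.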

[5] = Solubility (Test F); format: physicochemical; details: arithmetic mean if run multiple times
Procedure: The assay was conducted according to the Solubility Assay described in pages 164-167 of Wernevik, J. et al., “A Fully Integrated Assay Panel for Early Drug Metabolism and Pharmacokinetics Profiling”, Assay and Drug Development Technologies, 2020, 18(4), 157-179. Data are reported in Table 36 as solubility ([…]. Where the assay was run multiple times for the same compound, the arithmetic mean is reported.

[6] = target: T1, human RXFP1 (Homo sapiens, UniProt Q9HBX9); assay: RXFP1 Hu cAMP (Test A); format: cell-based; set-up: expressed in transfected cells; host or cells: Jump-In T-REx CHO-K1 cells (ThermoFisher), induced with 10 ng/ml doxycycline for 24 h; details: RXFP1 Hu cAMP; for EC50: read-out: Test A EC50
T1 sequence (Q9HBX9 1-757): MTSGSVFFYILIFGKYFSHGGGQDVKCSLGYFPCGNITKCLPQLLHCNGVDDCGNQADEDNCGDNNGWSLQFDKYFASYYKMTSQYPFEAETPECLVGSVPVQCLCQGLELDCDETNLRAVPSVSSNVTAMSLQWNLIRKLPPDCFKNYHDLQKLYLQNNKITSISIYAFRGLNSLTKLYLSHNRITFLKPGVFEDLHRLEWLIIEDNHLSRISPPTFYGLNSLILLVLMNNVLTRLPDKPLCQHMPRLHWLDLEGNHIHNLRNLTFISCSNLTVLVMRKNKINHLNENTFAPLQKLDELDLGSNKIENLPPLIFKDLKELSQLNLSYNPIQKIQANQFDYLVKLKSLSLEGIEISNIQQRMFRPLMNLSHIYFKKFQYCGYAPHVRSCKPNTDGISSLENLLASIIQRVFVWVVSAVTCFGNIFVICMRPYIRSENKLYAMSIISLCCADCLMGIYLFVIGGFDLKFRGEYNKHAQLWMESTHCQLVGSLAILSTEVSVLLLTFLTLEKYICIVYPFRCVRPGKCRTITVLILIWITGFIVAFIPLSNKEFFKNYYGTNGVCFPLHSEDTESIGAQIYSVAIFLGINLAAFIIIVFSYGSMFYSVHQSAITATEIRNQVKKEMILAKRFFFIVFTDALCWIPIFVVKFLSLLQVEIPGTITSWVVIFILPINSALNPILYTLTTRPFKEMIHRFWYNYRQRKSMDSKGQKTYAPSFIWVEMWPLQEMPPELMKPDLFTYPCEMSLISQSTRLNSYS
Outline: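 Doxycycline-induced (10 ng/ml, 24 h) CHO-K1 cells stably expressing human RXFP1; cAMP read by competitive HTRF after 2 h at room temperature, with 0.5 mM IBMX final.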

Row | SMILES | Test B Human Plasma Protein Binding (% free) [1] | microsomal CLint [2] | hepatocyte CLint at 1 µM [3] | hepatocyte CLint [4] | solubility [5] | Test A Sinf [6] | EC50 [6]
1 | COc1cc(F)c(O[C@H]2CC[C@@](CO)(C(=O)O)CC2)cc1C(=O)N[C@@H]1[C@H]2CC[C@H](C2)[C@@H]1C(=O)NCC1(C(F)(F)F)CCC1 [Example 365] | 7.8 % free | 14 µL/min/mg | 9.3 µL/min/1e6 cells | 15 µL/min/1e6 cells | 980 µM (≈ 602 µg/mL) | 113% | 57 nM
2 | COc1cc(F)c(-c2cccc(CC(=O)O)c2)cc1C(=O)N[C@H]1[C@@H](C(=O)Nc2cccc(S(=O)(=O)C(F)(F)F)c2)[C@@H]2C=C[C@H]1C2 (racemic) [Example 281] | 0.31 % free | 5.5 µL/min/mg | 5 µL/min/1e6 cells | 9.1 µL/min/1e6 cells | 11 µM (≈ 7.11 µg/mL) | 170% | 870 nM
3 | COc1cc(F)c(O[C@H]2CC[C@@H](C(=O)O)CC2)cc1C(=O)N[C@@H]1CC(F)(F)C[C@@H]1C(=O)Nc1ccc(F)c(C(F)(F)F)c1 (racemic) [Example 493] | 1.3 % free | < 3 µL/min/mg | 2.4 µL/min/1e6 cells | 4 µL/min/1e6 cells | 38 µM (≈ 23.6 µg/mL) | 108% | 420 nM
4 | COc1cc(F)c(-c2ccc(C(N)=O)cc2)cc1C(=O)N[C@H]1[C@@H](C(=O)Nc2cccc(S(=O)(=O)C(F)(F)F)c2)[C@@H]2C=C[C@H]1C2 [Example 270, 6-Fluoro-4-methoxy-N3-((1R,2R,3S,4S)-3-((3-((trifluoromethyl)sulfonyl)phenyl)carbamoyl)bicyclo[2.2.1]hept-5-en-2-yl)-[1,1′-biphenyl]-3,4′-dicarboxamide] | <0.26 % free | 120 µL/min/mg | 32 µL/min/1e6 cells | 38 µL/min/1e6 cells | 2 µM (≈ 1.26 µg/mL) | 107% | 120 nM
5 | COc1cc(F)c(OC2CCC(C)(C(=O)O)CC2)cc1C(=O)NC1CC(OC)CC1C(=O)Nc1cccc(S(=O)(=O)C(F)(F)F)c1 (single isomer, unassigned) [Example 524, (1R,4s)-4-(2-Fluoro-4-methoxy-5-(((1S*,2R*,4R*)-4-methoxy-2-((3-((trifluoromethyl)sulfonyl)phenyl)carbamoyl)cyclopentyl)carbamoyl)phenoxy)-1-methylcyclohexane-1-carboxylic acid] | 3.6 % free | 16 µL/min/mg | 6.2 µL/min/1e6 cells | 23 µL/min/1e6 cells | 920 µM (≈ 621 µg/mL) | 110% | 25 nM
6 | COc1cc(F)c(O[C@H]2CC[C@@H](C(=O)O)CC2)cc1C(=O)N[C@@H]1[C@H]2CC[C@H](C2)[C@@H]1C(=O)Nc1cccc(S(=O)(=O)C(F)(F)F)c1 [Example 491] | 2.1 % free | 42 µL/min/mg | 15 µL/min/1e6 cells | 23 µL/min/1e6 cells | 550 µM (≈ 361 µg/mL) | 102% | 42 nM
7 | COc1cc(F)c(-c2ccc(C(=O)O)cc2)cc1C(=O)N[C@H]1[C@@H]2CC[C@@H](C2)[C@H]1C(=O)Nc1ccc(F)c(C(F)(F)F)c1 (single isomer, unassigned) [Example 591] | <0.36 % free | 19 µL/min/mg | 140 µL/min/1e6 cells | 28 µL/min/1e6 cells | > 1000 µM | 111% | 
8 | CCC(CC)[C@@H](C)NC(=O)[C@H]1[C@@H]2CC[C@@H](C2)[C@H]1NC(=O)c1cc(O[C@H]2CC[C@@](C)(C(=O)O)CC2)c(F)cc1OC (single isomer, unassigned) [Example 145, (1S,4s)-4-(5-(((1S,2R,3S,4R)-3-(((R*)-3-Ethylpentan-2-yl)carbamoyl)bicyclo[2.2.1]heptan-2-yl)carbamoyl)-2-fluoro-4-methoxyphenoxy)-1-methylcyclohexane-1-carboxylic acid] | 0.81 % free | 180 µL/min/mg | 14 µL/min/1e6 cells | 53 µL/min/1e6 cells | 870 µM (≈ 488 µg/mL) | 95% | 1300 nM

Continued, values first:

Row | Test B Human Plasma Protein Binding (% free) [1] | microsomal CLint [2] | hepatocyte CLint at 1 µM [3] | hepatocyte CLint [4] | solubility [5] | Test A Sinf [6] | EC50 [6] | SMILES
9 | 1.5 % free | 31 µL/min/mg | 26 µL/min/1e6 cells | 21 µL/min/1e6 cells | 760 µM (≈ 478 µg/mL) | 101% | 540 nM | COc1cc(F)c(O[C@H]2C[C@H](C(=O)O)C2)cc1C(=O)NC1[C@H]2CC[C@H](C2)[C@@H]1C(=O)Nc1cccc(S(=O)(=O)C(F)(F)F)c1 (some centres unmarked) [Example 443]
10 | 1.2 % free | < 3 µL/min/mg | 3.3 µL/min/1e6 cells | 9.8 µL/min/1e6 cells | 6.5 µM (≈ 3.34 µg/mL) | 129% | 320 nM | COc1cc(F)c(O[C@H]2CC[C@@](C)(C(=O)O)CC2)cc1C(=O)Nc1ccccc1C(=O)NCC(C)(C)C [Example 142, (1s,4s)-4-(2-Fluoro-4-methoxy-5-((2-(neopentylcarbamoyl)phenyl)-carbamoyl)phenoxy)-1-methylcyclohexane-1-carboxylic acid]
11 | 21 % free | < 3 µL/min/mg | < 1 µL/min/1e6 cells | 17 µL/min/1e6 cells | > 1000 µM | 111% | 200 nM | COc1cc(F)c(O[C@H]2CC[C@@](C)(C(=O)O)CC2)cc1C(=O)N[C@@H]1[C@H]2CC[C@H](C2)[C@@H]1C(=O)NCC(C)(C)C#N [Example 47]
12 | 0.49 % free | 5.4 µL/min/mg | 11 µL/min/1e6 cells | 30 µL/min/1e6 cells | 37 µM (≈ 20.8 µg/mL) | 126% | 8.4 nM | COc1cc(F)c(O[C@H]2CC[C@@](C)(C(=O)O)CC2)cc1C(=O)Nc1cc(Cl)ccc1C(=O)NCC1(C)CCC1 [Example 155, (1s,4s)-4-(5-((5-Chloro-2-(((1-methylcyclobutyl)methyl)carbamoyl)phenyl)carbamoyl)-2-fluoro-4-methoxyphenoxy)-1-methylcyclohexane-1-carboxylic acid]
13 | 1.4 % free | 63 µL/min/mg | 150 µL/min/1e6 cells | > 300 µL/min/1e6 cells | 880 µM (≈ 567 µg/mL) | 103% |  | COc1cc(F)c(OCCCCCC(=O)O)cc1C(=O)N[C@@H]1[C@H]2CC[C@H](C2)[C@@H]1C(=O)Nc1cccc(S(=O)(=O)C(F)(F)F)c1 [Example 435, 6-(2-Fluoro-4-methoxy-5-(((1S,2R,3S,4R)-3-((3-((trifluoromethyl)sulfonyl)phenyl)carbamoyl)bicyclo[2.2.1]heptan-2-yl)carbamoyl)phenoxy)hexanoic acid]
14 | <0.30 % free | 21 µL/min/mg | 13 µL/min/1e6 cells | 18 µL/min/1e6 cells | 560 µM (≈ 354 µg/mL) |  | > 50000 nM | COc1cc(F)c(-c2cccc(C(=O)O)c2)cc1C(=O)N[C@@H]1[C@H](C(=O)Nc2cccc(S(=O)(=O)C(F)(F)F)c2)[C@H]2C=C[C@@H]1C2 (single isomer, unassigned) [Example 555]
